Results: patent publication US20250230165A1, “HETEROCYCLIC COMPOUNDS FOR USE IN THE TREATMENT OF CANCER” (ARTIOS PHARMA LIMITED, priority 2021, published 2025)

Biological target: T1, Human Polθ polymerase domain (aa1820-2590) (Homo sapiens, UniProt O75417)
T1 construct: Human Polθ polymerase domain (aa1820-2590) was expressed in E. coli; made in house; host or cells: E. coli
T1 sequence (O75417 1820-2590): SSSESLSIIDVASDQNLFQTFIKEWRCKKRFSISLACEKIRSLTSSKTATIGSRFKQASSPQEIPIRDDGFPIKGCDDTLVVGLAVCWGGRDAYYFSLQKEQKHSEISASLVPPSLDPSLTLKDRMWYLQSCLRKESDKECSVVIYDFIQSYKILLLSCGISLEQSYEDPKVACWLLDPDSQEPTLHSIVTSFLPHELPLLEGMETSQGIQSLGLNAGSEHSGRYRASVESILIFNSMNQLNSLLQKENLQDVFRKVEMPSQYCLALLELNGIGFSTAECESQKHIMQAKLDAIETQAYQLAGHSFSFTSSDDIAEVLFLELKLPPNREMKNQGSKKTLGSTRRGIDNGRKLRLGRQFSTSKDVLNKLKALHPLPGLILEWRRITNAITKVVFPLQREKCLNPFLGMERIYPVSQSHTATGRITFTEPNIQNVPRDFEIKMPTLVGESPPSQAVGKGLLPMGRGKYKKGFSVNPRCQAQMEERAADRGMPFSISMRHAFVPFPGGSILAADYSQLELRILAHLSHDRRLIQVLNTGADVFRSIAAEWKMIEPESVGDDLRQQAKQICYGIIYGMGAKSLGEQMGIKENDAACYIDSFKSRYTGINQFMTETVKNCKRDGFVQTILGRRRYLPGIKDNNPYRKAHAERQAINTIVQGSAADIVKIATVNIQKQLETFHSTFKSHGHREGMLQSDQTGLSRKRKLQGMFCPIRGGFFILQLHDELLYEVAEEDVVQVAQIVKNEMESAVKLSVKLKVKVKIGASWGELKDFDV
Assay: Polθ Polymerase Domain Kinact/KI Assay (PicoGreen)
Format: biochemical
Settings: 0.8 nM Polθ, 100 nM DNA substrate, kobs vs [I] fit for 2-step covalent inhibitor
Procedure: Polθ Polymerase Domain Kinact/KI Assay
A PicoGreen assay was used to measure the Kinact and KI values of covalent compounds that inhibit the activity of Polθ in vitro.
Human Polθ polymerase domain (aa1820-2590) was expressed in E. coli, purified, aliquoted and stored at −80° C. until required. Polθ substrate was generated from a 1.2:1 mix of DNA II Short to DNA II Long to give a final concentration of […] substrate in annealing buffer (20 mM Tris pH 7.5, 50 mM NaCl). The substrate was heated in […] aliquots to 95° C. in a heating block for 5 min before the heating block switched off, the reaction left to cool to rt and stored at −20° C. until required.
Assay measurements were performed with 1× buffer comprising 25 mM Tris pH 7.5, 12.5 mM NaCl, […], 5% (v/v) glycerol, 0.01% v/v Triton x-100, 0.1 mg/ml BSA, 1 mM DTT. Test compounds were prepared by dilution in 100% DMSO to give a 12 μM intermediate stock of each (100× final top concentration). 100 nL of 23×1:1.5-fold serial dilutions and a DMSO only control were dispensed using the Tecan dispenser into Greiner 384 well black low volume plates (product code 784076). DMSO concentration was maintained at 1% of the final assay volume by back filling with DMSO.
2× Working stock of substrate (200 nM of DNA substrate and […] dNTPs) and enzyme ([…] PolΘ) were made up in assay buffer. 5 μL/well of both enzyme and substrate 2× solutions were dispensed using a Tempest dispenser (Formulatrix) into assay plates that had been pre-dispensed with compound to give a final assay concentration of 100 nM DNA substrate, […] dNTPs and 0.8 nM Polθ. To stop the reaction, […] of a solution containing 25 mM Tris-HCl pH 7.5 and 20 mM EDTA was added at […] (t=0, 2.5, 5, 7.5, 10, 12.5, 15, 20, 25, 30, 35, 40, 45, 50, 55 and 60 min) using the Tempest's time delay function. The plates were covered during the time course to prevent evaporation. After completing the assay, 5 μL of detection reagent (25 mM Tris-HCl pH 7.5 and 2.5% (v/v) PicoGreen) was dispensed into the wells using a Tempest liquid handler (Formulatrix) and plates subsequently read on the CLARIOstar Plus (BMG Labtech) using the default optical settings for fluorescein and the auto gain/focus settings.
All data analysis was carried out using GraphPad Prism V.8 (GraphPad Software Inc, San Diego, CA) Time course data for each inhibitor concentration was fitted to equation 1 to determine kobs values.^1 Any time points where the control (DMSO alone) reaction was no longer linear were excluded from the analysis. 1) Evaluation of Enzyme Inhibitors in Drug Discovery (Ch9), R. A Copeland, Wiley, 2nd Edition 2013.
A secondary plot of kobs vs [I] is used to determine the Kinact and KI parameters (for a 2-step covalent inhibitor) by fitting to equation 2.^1

| Kinact/Kl [µM⁻¹ s⁻¹] | Structure (SMILES) |
| --- | --- |
| 0.054 | C=CC(=O)N1CC[C@]12CCN(CCN1C[C@H]3CC(=O)N(c4cc(C(F)(F)F)cc(C)n4)[C@@H]3C(=O)N(C)c3cccc(F)c31)C2 (racemic) [Example 21a, (3aR,11aS)-5-(2-((S/R)-1-acryloyl-1,6-diazaspiro[3.4]octan-6-yl)ethyl)-6-fluoro-10-methyl-1-(6-methyl-4-(trifluoromethyl)pyridin-2-yl)-1,3a,4,5,10,11a-hexahydro-2H-benzo[b]pyrrolo[2,3-f][1,4]diazocine-2, 11(3H)-dione] |
| 0.14 | C=CC(=O)N1CCN2CCN(CCN3C[C@H]4CC(=O)N(c5cc(C(F)(F)F)cc(C)n5)[C@@H]4C(=O)N(C)c4cccc(F)c43)C[C@H]2C1 (racemic) [Example 23a, (3aR,11aS)-5-(2-((S/R)-8-acryloyloctahydro-2H-pyrazino[1,2-a]pyrazin-2-yl)ethyl)-6-fluoro-10-methyl-1-(6-methyl-4-(trifluoromethyl)pyridin-2-yl)-1,3a,4,5,10,11a-hexahydro-2H-benzo[b]pyrrolo[2,3-f][1,4]diazocine-2, 11(3H)-dione] |
| 1.20 | C=CC(=O)N1CC2(C1)NCCN(CCN1C[C@H]3CC(=O)N(c4cc(C(F)(F)F)cc(C)n4)[C@@H]3C(=O)N(C)c3cccc(F)c31)[C@H]2C (racemic) [Example 34a, (3aR,11aS)-5-(2-((S/R)-2-acryloyl-9-methyl-2,5,8-triazaspiro[3.5]nonan-8-yl)ethyl)-6-fluoro-10-methyl-1-(6-methyl-4-(trifluoromethyl)pyridin-2-yl)-1,3a,4,5, 10,11a-hexahydro-2H-benzo[b]pyrrolo [2,3-f][1,4]diazocine-2,11(3H)-dione] |
| 0.66 | C=CC(=O)N1CC(N(C)C[C@H](O)CN2C[C@H]3CC(=O)N(c4cc(C(F)(F)F)cc(C)n4)[C@@H]3C(=O)N(C)c3cccc(Cl)c32)C1 (racemic) [Example 68, (3aR,11aS)-5-((S/R)-3-((1-acryloylazetidin-3-yl)(methyl)amino)-2-hydroxypropyl)-6-chloro-10-methyl-1-(6-methyl-4-(trifluoromethyl)pyridin-2-yl)-1,3a,4,5,10,11a-hexahydro-2H-benzo[b]pyrrolo[2,3-f][1,4]diazocine-2,11(3H)-dione] |
| 3.50 | C=CC(=O)N1CC2(CN(CCN3C[C@H]4CC(=O)N(c5cc(C(F)(F)F)cc(C)n5)[C@@H]4C(=O)N(C)c4cccc(Cl)c43)C[C@H]2C#N)C1 (racemic) [Example 117b, (S/R)-2-acryloyl-6-(2-((3aR,11aS)-6-chloro-10-methyl-1-(6-methyl-4-(trifluoromethyl)pyridin-2-yl)-2,11-dioxo-1,2,3,3a,4,10,11,11a-octahydro-5H-benzo[b]pyrrolo[2,3-f][1,4]diazocin-5-yl)ethyl)-2,6-diazaspiro[3.4]octane-8-carbonitrile] |
| 3.36 | C=CC(=O)N1CC2(CN(CCN3C[C@H]4CC(=O)N(c5cc(C(F)(F)F)cc(C)n5)[C@@H]4C(=O)N(C)c4cccc(C)c43)C[C@H]2C#N)C1 (racemic) [Example 118b, (S/R)-2-acryloyl-6-(2-((3aR,11aS)-6,10-dimethyl-1-(6-methyl-4-(trifluoromethyl)pyridin-2-yl)-2,11-dioxo-1,2,3,3a,4,10,11,11a-octahydro-5H-benzo[b]pyrrolo[2,3-f][1,4]diazocin-5-yl)ethyl)-2,6-diazaspiro[3.4]octane-8-carbonitrile] |
| 3.87 | C=CC(=O)N1CC2(CN(CCN3C[C@H]4CC(=O)N(c5cc(C(F)(F)F)cc(C)n5)[C@@H]4C(=O)N(C)c4cccc(C)c43)C[C@@]2(C)C#N)C1 (racemic) [Example 119b, (S/R)-2-acryloyl-6-(2-((3aR,11aS)-6,10-dimethyl-1-(6-methyl-4-(trifluoromethyl)pyridin-2-yl)-2,11-dioxo-1,2,3,3a,4,10,11,11a-octahydro-5H-benzo[b]pyrrolo[2,3-f][1,4]diazocin-5-yl)ethyl)-8-methyl-2,6-diazaspiro[3.4]octane-8-carbonitrile] |
| 0.10 | C=CC(=O)N1CCC[C@H]1c1ccc(CN2C[C@H]3CC(=O)N(c4cc(C(F)(F)F)cc(C)n4)[C@@H]3C(=O)N(C)c3cccc(F)c32)cc1 (racemic) [Example 141b, (3aR,11aS)-5-(4-((S/R)-1-acryloylpyrrolidin-2-yl)benzyl)-6-fluoro-10-methyl-1-(6-methyl-4-(trifluoromethyl)pyridin-2-yl)-1,3a,4,5,10,11a-hexahydro-2H-benzo[b]pyrrolo[2,3-f][1,4]diazocine-2,11(3H)-dione] |
| 0.63 | C=CC(=O)N1CCn2cc(CN3C[C@H]4CC(=O)N(c5cc(C(F)(F)F)cc(C)n5)[C@@H]4C(=O)N(C)c4cccc(Cl)c43)nc2[C@@H]1C (racemic) [Example 142b] |
| 2.32 | C=CC(=O)N1Cc2nc(CN3C[C@H]4CC(=O)N(c5cc(C(F)(F)F)cc(C)n5)[C@@H]4C(=O)N(C)c4cccc(Cl)c43)cn2C[C@H]1C (racemic) [Example 143b, (3aR,11aS)-5-(((S/R)-7-acryloyl-6-methyl-5,6,7,8-tetrahydroimidazo[1,2-a]pyrazin-2-yl)methyl)-6-chloro-10-methyl-1-(6-methyl-4-(trifluoromethyl)pyridin-2-yl)-1,3a,4,5,10,11a-hexahydro-2H-benzo[b]pyrrolo[2,3-f][1,4]diazocine-2,11(3H)-dione] |

| Structure (SMILES) | Kinact/Kl [µM⁻¹ s⁻¹] |
| --- | --- |
| C=CC(=O)N1CC2(CN(CCN3C[C@H]4CC(=O)N(c5cc(C(F)(F)F)cc(C)n5)[C@@H]4C(=O)N(C)c4cccc(F)c43)C[C@H]3COCCN32)C1 (racemic) [Example 24b, (3aR,11aS)-5-(2-((S/R)-1-acryloyltetrahydro-1′H-spiro[azetidine-3,6′-pyrazino[2,1-c][1,4]oxazin]-8′(7′H)-yl)ethyl)-6-fluoro-10-methyl-1-(6-methyl-4-(trifluoromethyl)pyridin-2-yl)-1,3a,4,5,10,11a-hexahydro-2H-benzo[b]pyrrolo[2,3-f][1,4]diazocine-2, 11(3H)-dione] | 0.29 |
| C=CC(=O)N1CC2(CN(CCN3C[C@H]4CC(=O)N(c5cc(C(F)(F)F)cc(C)n5)[C@@H]4C(=O)N(C)c4cccc(Cl)c43)C[C@H]3COCCN32)C1 (racemic) [Example 26b, (3aR,11aS)-5-(2-((S/R)-1-acryloyl-tetrahydro-1′H-spiro[azetidine-3,6′-pyrazino[2,1-c][1,4]oxazin]-8′(7′H)-yl)ethyl)-6-chloro-10-methyl-1-(6-methyl-4-(trifluoromethyl)pyridin-2-yl)-1,3a,4,5,10,11a-hexahydro-2H-benzo[b]pyrrolo[2,3-f][1,4]diazocine-2, 11(3H)-dione] | 1.29 |
